Data reported in patent EP0847397B1, “WATER-SOLUBLE C-RING ANALOGUES OF 20 (S)-CAMPTOTHECIN” (DR. REDDY'S RESEARCH FOUNDATION, priority 1996, dated 1997).

Tests used:
[1] = Lactone stability in whole blood (HPLC); type: in vitro ADME; settings: 100 μM, 37°C, lactone peak area relative to zero time (100%); for Lactone Stability in Whole Blood (after 3 hours): 180 min
Experimental: 2. Lactone Stability in whole blood:
2 ml of blood from a healthy volunteer was collected in a tube containing 40 µl of heparin (572 IU) to prevent coagulation, 4 mM and 40 µM working solutions of the drug in DMSO were prepared and added to aliquots of whole blood to give final concentration of 100 µM and 1 µM respectively. The drug is incubated in whole blood at 37°C and 20 µl samples are collected into 180 µl of chilled methanol (-30°C) at different time intervals (0, 1, 2 & 3 hrs). Vortex and then centrifuge at 11000 rpm for 3 min in a microcentrifuge at room temperature. Dilute 100 µl of the supernatant with water to 300-500 µl depending upon the signal response (UV for 100 µM concentration and fluoroscence for 1 µM concentration) of the compound. 200 µl of the diluted sample is injected on to the HPLC column previously equilibrated with the mobile phase. The area under peak corrsponding to lactone forms is measured. Zero time peak area is taken as 100%, and the proportion of lactone peak area at different time points is calculated to determine the equilibrium lactone stability as obtained by consistent lactone proportion over two successive time points. (Biochemistry, 1994; 33:10325-10336 and J. Pharm. Sci., 1995; 84:518-519).

[2] = tested on: NCI's 60 human tumor cell line assay; assay: cells; type: cell-based; settings: 60 cell, 48 h, read-out: IC50 (mean GI50 against NCI's 60 human tumor cell line assay)
Experimental: Each test compound was screened against a battery of 60 human cell lines obtained from eight organs. In a typical procedure, the cell suspensions that were diluted according to the particular cell type and the expected target cell density (5000-40,000 cells per well based on cell growth characteristics) were added into 96-well microtiter plates. Inoculates were allowed a preincubation period of 24h at 37°C. for stabilization. Dilutions at twice the intended test concentrations were added at time zero in 100-µl aliquots to microtiter plate wells. Usually test compounds were evaluated at five 10-fold dilutions. The highest well concentration used in the test is 10^-4M. The cells are then incubated in the presence of drug (the test compound) for further 48h in 5% CO2 atmosphere and 100% humidity. At the end of this time, the adherent cells are fixed to the plate by means of trichloroacetic acid, and after a number of washes, the cell layer is treated with the protein stain Sulforhodamine B. The optical density which is proportional to protein mass, is then read by automated spectrophotometric plate readers at a wavelength of 515 nm. Readings are transferred to a microcomputer and final reports are generated using especially developed software.

Row | Compound | mean GI50 [2] | also measured
1 | CCOC1c2cc3c(O)cccc3nc2-c2cc3c(c(=O)n21)COC(=O)[C@]3(O)CC (single isomer, unassigned) [Example 11 Diastereomer A, 5-Ethoxy-9-hydroxycamptothecin] |  | remaining at 3 h, 100 µM ([1]; human, whole blood, read-out: Lactone Stability in Whole Blood (after 3 hours)): 3.73 ± 1.5%
2 | CCOC1c2cc3c(O)cccc3nc2-c2cc3c(c(=O)n21)COC(=O)[C@]3(O)CC (single isomer, unassigned) [Example 11 Diastereomer B, 5-Ethoxy-9-hydroxycamptothecin] |  | Lactone Stability in Whole Blood (after 3 hours) [1]: 6.15±2.53
3 | CC[C@@]1(O)C(=O)OCc2c1cc1n(c2=O)C(OCC(F)(F)F)c2cc3cc(O)ccc3nc2-1 (single isomer, unassigned) [Example 27 Diastereomer A, 10-Hydroxy-5-trifluoroethoxycamptothecin] |  | Lactone Stability in Whole Blood (after 3 hours) [1]: 4.58±1.72
4 | CC[C@@]1(O)C(=O)OCc2c1cc1n(c2=O)C(OCC(F)(F)F)c2cc3cc(O)ccc3nc2-1 (single isomer, unassigned) [Example 27 Diastereomer B, 10-Hydroxy-5-trifluoroethoxycamptothecin] |  | Lactone Stability in Whole Blood (after 3 hours) [1]: 11.9±2.91
5 | CCc1c2c(nc3ccccc13)-c1cc3c(c(=O)n1C2OCCN1CCCCC1)COC(=O)[C@]3(O)CC (stereo partly drawn) [7-Ethyl-5-piperidinoethoxy camptothecin] | > 30 µM | 
6 | CCc1c2c(nc3ccccc13)-c1cc3c(c(=O)n1C2OCC(F)(F)F)COC(=O)[C@]3(O)CC (stereo partly drawn) [7-Ethyl-5-trifluoroethoxycamptothecin] | 7.41 µM | 
7 | CC[C@@]1(O)C(=O)OCc2c1cc1n(c2=O)C(OCCOC)c2cc3c([N+](=O)[O-])cccc3nc2-1 (stereo partly drawn) [9-Nitro-5-methoxyethoxy camptothecin] | 2.04 µM | 
8 | CC[C@@]1(O)C(=O)OCc2c1cc1n(c2=O)C(OC)c2cc3ccccc3nc2-1 (stereo partly drawn) [Example 1, 5-methoxycamptothecin] | 8.5 µM | 
9 | CCOC1c2c(nc3ccccc3c2CC)-c2cc3c(c(=O)n21)COC(=O)[C@]3(O)CC (stereo partly drawn) [Example 3, 5-Ethoxy-7-ethylcamptothecin] | 1.41 µM | 
10 | CCOC1c2cc3c(OC)cccc3nc2-c2cc3c(c(=O)n21)COC(=O)[C@]3(O)CC (stereo partly drawn) [Example 5, 5-Ethoxy-9-methoxycamptothecin] | 2.45 µM | 
11 | CCOC1c2c(nc3cccc(OC)c3c2CC)-c2cc3c(c(=O)n21)COC(=O)[C@]3(O)CC (stereo partly drawn) [Example 7, 5-Ethoxy-9-methoxy-7-ethylcamptothecin] | 2.13 µM | 
12 | CCOC1c2cc3ccccc3nc2-c2cc3c(c(=O)n21)COC(=O)[C@]3(O)CC (stereo partly drawn) [Example 9, 5-Ethoxycamptothecin] | 9.54 µM | 
13 | CCCCOC1c2cc3ccccc3nc2-c2cc3c(c(=O)n21)COC(=O)[C@]3(O)CC (stereo partly drawn) [Example 10, 5-butoxycamptothecin] | 6.16 µM | 
14 | CCOC1c2cc3cccc([N+](=O)[O-])c3nc2-c2cc3c(c(=O)n21)COC(=O)[C@]3(O)CC (stereo partly drawn) [Example 16, 12-Nitro-5-ethoxycamptothecin] | > 30 µM | 
15 | CC[C@@]1(O)C(=O)OCc2c1cc1n(c2=O)C(OC)c2cc3c(N)cccc3nc2-1 (stereo partly drawn) [Example 20, 9-amino-5-methoxycamptothecin] | 6.76 µM | 
16 | CC[C@@]1(O)C(=O)OCc2c1cc1n(c2=O)C(O)c2cc3cccc([N+](=O)[O-])c3nc2-1 (stereo partly drawn) [Example 23, 12-Nitro-5-hydroxy camptothecin] | > 30 µM | 
17 | CC[C@@]1(O)C(=O)OCc2c1cc1n(c2=O)C(OCCCl)c2cc3ccccc3nc2-1 (stereo partly drawn) [Example 24, 5-(2'-Chloroethoxy)camptothecin] | 4.57 µM | 
18 | CC[C@@]1(O)C(=O)OCc2c1cc1n(c2=O)C(OCCF)c2cc3ccccc3nc2-1 (stereo partly drawn) [Example 29, 5-(2'-fluoroethoxy)camptothecin] | 1.58 µM | 
19 | CCc1c2c(nc3ccccc13)-c1cc3c(c(=O)n1C2OCCF)COC(=O)[C@]3(O)CC (stereo partly drawn) [Example 31, 5-(2'-Fluoroethoxy)-7-ethylcamptothecin] | 4.36 µM | 
20 | CC[C@@]1(O)C(=O)OCc2c1cc1n(c2=O)C(OCCO)c2cc3cc(O)ccc3nc2-1 (stereo partly drawn) [Example 33, 5-(2'-Hydroxyethoxy)-10-hydroxycamptothecin] | 8.12 µM | 
21 | CC[C@@]1(O)C(=O)OCc2c1cc1n(c2=O)C(OCCN)c2cc3ccccc3nc2-1 (stereo partly drawn) [Example 36, 5-(2'-aminoethoxy) camptothecin] | 30 µM | 
22 | CCc1c2c(nc3ccccc13)-c1cc3c(c(=O)n1C2OCCCN(C)C)COC(=O)[C@]3(O)CC (stereo partly drawn) [Example 38, 5-(3'-dimethylaminopropoxy)-7-ethylcamptothecin] | > 30 µM | 
23 | CCc1c2c(nc3ccccc13)-c1cc3c(c(=O)n1C2OCCCl)COC(=O)[C@]3(O)CC (stereo partly drawn) [Example 40, 5-(2'-chloroethoxy)-7-ethylcamptothecin] | 2.75 µM | 
24 | CCc1c2c(nc3ccccc13)-c1cc3c(c(=O)n1C2OCCN(C)C)COC(=O)[C@]3(O)CC (stereo partly drawn) [Example 41, 5-(2'-dimethylaminoethoxy)-7-ethylcamptothecin] | 13.8 µM | 
